According to patent US11931330B2, “Composition for promoting skeletal muscle activity via induction of mitochondrial biogenesis comprising of azelaic acid as an active ingredient” (Korea University Research and Business Foundation, priority 2018, dated 2024):

Key:
Olfr544 [1] = assay: mtDNA and mitochondrial density in Scr siRNA normal and Olfr544 knockdown C2C12 cells; format: cell-based, murine
Experimental: (§1) The differentiated skeletal muscle cells, C2C12 cells, were transfected with 200 pmol of scramble (control) or Olfr544 siRNA duplex (Santa Cruz, USA) using the Lipofectamine 2000 reagent (Invitrogen, USA) for 6 hours. Subsequently, another transfection was performed for 10 to 12 hours. The transfected cells were used for RNA or protein extraction.
(§2) The differentiated C2C12 cells were treated with azelaic acid, treated with 300 μL of a lysis buffer (20 mM EDTA, 100 mM Tris, 200 mM NaCl, 0.2% Triton X-100, 100 μg/mL) per well, and cultured at 37° C. for 90 minutes, and the extracted supernatant was treated with the same amount of isopropanol and 25 μL of a 4M NaCl solution. After storage at −20° C. overnight, distilled water (D.W.) was added to a pellet obtained by centrifugation (14,000 rpm, RT, 20 min), thereby extracting mtDNA. Afterward, 2 μl of DNA, 10 μl of the SYBR green PCR master mix, 0.5 μL of each of a forward primer and a reverse primer having a concentration of 10 pmol, and 6.6 μL of sterile distilled water were mixed, and qPCR was performed using the Thunderbird TMSYBR® qPCR Mix reagent (Takara Bio Inc., Japan). A gene expression level was analyzed using the iQ5 Cycler System (Bio-Rad, USA).
The change in mitochondrial DNA content and abundance were determined using MitoTracker. Olfr544 siRNA-transfected cells were treated with an azelaic acid at a concentration of 50 μM for 24 hours, and then washed with PBS. Afterward, a medium containing 200 nM of the MitoTracker green probe was added to the cells, and the cells were cultured for 30 minutes. The mitochondrial density was measured by quantifying wavelengths of a part binding to the tracker, which absorbs a wavelength at 490 nm and emits a wavelength at 516 nm, using SpectraMax. The images were obtained by the Zeiss LSM700 confocal microscope, and then analyzed using the Zeiss LSM700 version 3.2 software (Carl Zeiss, Germany)

[2] = test system: muscle tissue of HFD-induced obese mice; assay: Oral administration for 6 weeks to HFD-induced obese normal and Olfr544 knockout mice, muscle tissue qPCR and mtDNA; format: in vivo, mouse; details: oral 100 mg/kg
Experimental: (§3) 8-week-old ICR male […] and C57BL/6J were purchased from Samtako (Gyeonggi-do, Seoul), and Olfr544 knockout mice from which exon 2 (161-428 bp) of an Olfr544 gene was removed using a CRISPR-Cas9 system were purchased from Macrogen (Seoul, Korea). All animal experiments were carried out in accordance with the experimental method (Protocol No. KUIACUC-2016-97) approved by the Animal Experiment Ethics Committee at Korea University. In the breeding environment, a 12-hour light cycle, a room temperature of 25 to 31° C., and relative humidity of […] were maintained. The mice were freely fed a 60% high-fat diet, and randomly divided into 4 groups (n=7, two groups for normal mice, and the other two groups for knockout (KO) mice). For exact Olfr544 activation, the mice were fasted overnight, and then intraperitoneally injected with an azelaic acid (100 mg/kg of body weight). For a control, the same amount of PBS was intraperitoneally injected. In an experiment for long-term administration of an azelaic acid, the azelaic acid was orally administered at a dose of 100 mg/kg of body weight. During the last week of the experimental period (6 weeks), the mice fasted for 16 hours were anesthetized and sacrificed. The collected muscle tissue was put into a freezing tube, immediately put into liquid nitrogen, and then stored at −80° C.
cDNA was synthesized using RNA extracted by adding the RNAiso plus reagent to murine muscle cells. Subsequently, the synthesized cDNA was subjected to qPCR using the Thunderbird TMSYBR® qPCR Mix reagent (Takara Bio Inc., Japan). A gene expression level was analyzed using the iQ5 Cycler System (Bio-Rad, USA).
as §2, with “Murine muscle” for “The differentiated C2C12”, “with” for “with azelaic acid, treated with 300 μL of”, “μg/mL),” for “μg/mL) per well,”

Hepa1c1c-7 cells = assay: MTT assay, cytotoxicity of azelaic acid; format: cell-based; details: 0 to 500 μM, 24 hours, compared to the control group
Experimental: To evaluate cytotoxicity of an azelaic acid, an MTT assay was performed. The MTT assay is a test method utilizing the ability of mitochondria to reduce MTT tetrazolium, which is a yellow water-soluble substrate, to non-water-soluble MTT formazan showing a blue-violet color by a dehydrogenase. The MTT reagent was prepared by being diluted in phosphate buffered saline (PBS) at a concentration of 2 to 5 mg/mL. Hepalcic-7 cells used in this experiment were purchased from the Korean Cell Line Bank, and cultured in a minimum essential medium Eagle alpha modification medium (MEM-alpha, Hyclone) supplemented with 10% FBS and 1% PEST. For this experiment, the Hepa1c1c-7 cells (4×10^4 cell/mL) were seeded into a 96-well plate and incubated at 37° C. under 5% CO2 for 24 hours, and then incubated for 24 hours by adding an azelaic acid in a concentration range of 0 to 500 μM. Afterward, each sample was treated with 100 μL of the MTT reagent (4 mg/mL), incubated at 37° C. under 5% CO2 for 4 hours and treated with 100 μL of dimethyl sulfoxide (DMSO), followed by measuring absorbance at 540 nm. Since the absorbance level is proportional to a cell count, a cell death effect caused by toxicity may be quantified.

PGC-1α = PGC-1α gene and protein expression in differentiated C2C12 cells (qPCR, immunoblotting); format: cell-based, murine; details: 50 μM, 24 hours, compared to DMSO control
Experimental: (§4) Murine skeletal muscle cells, C2C12 cells, were purchased from the Korean Cell Line Bank. The cells were cultured using a Dulbecco's modified Eagle's medium (DMEM) supplemented with 20% fetal bovine serum (FBS; HyClone, USA) and 1% antibiotics (penicillin/streptomycin). When the cells reached 50% confluency (the degree of proliferation) under 5% CO2 (v/v) at 37° C., the cells were subcultured and maintained.
(§5) To differentiate the cells, the medium was replaced with DMEM containing 2% horse serum (HyClone), and after 7 days of differentiation, the cells were used in the experiment.
C2C12 cells differentiated for 7 days as described in Example 2-1 were treated with 12.5, 25 or 50 μM of an azelaic acid. […]
qPCR was performed to synthesize cDNA using RNA extracted from cells grown in a culture medium and then treated with 300 μL of the RNAiso plus reagent per well. […] A gene expression level was analyzed using the iQ5 Cycler System (Bio-Rad, USA).
Protein extraction was performed using an RIPA buffer (10 mM Tris-HCl, pH 7.5, 1% NP-40, 0.1% sodium deoxycholate, 0.1% SDS, 150 mM NaCl, and 1 mM EDTA), a Halt™ protease and a phosphatase inhibitor reagent (Thermo, USA). […] The resulting immunoblotting image was analyzed using the ChemiDoc™ touch imaging system and Image Lab 5.2 software (Bio-Rad, PA, USA).

Olfr544 [3] = assay: PGC-1α expression in Scr siRNA normal and Olfr544 knockdown C2C12 cells; format: cell-based, murine; details: 50 μM
Experimental: as §1
qPCR was performed to synthesize cDNA using RNA extracted from cells grown in a culture medium and then treated with 300 μL of the RNAiso plus reagent per well. Subsequently, the synthesized cDNA was subjected to qPCR using the Thunderbird TMSYBR® qPCR Mix reagent (Takara Bio Inc., Japan). A gene expression level was analyzed using the iQ5 Cycler System (Bio-Rad, USA).
(§6) Protein extraction was performed using an RIPA buffer (10 mM Tris-HCl, pH 7.5, 1% NP-40, 0.1% sodium deoxycholate, 0.1% SDS, 150 mM NaCl, and 1 mM EDTA), a Halt™ protease and a phosphatase inhibitor reagent (Thermo, USA). As primary antibodies, anti-α-tubulin (1:1000) and anti-PGC-1α (1:500; Santa Cruz Biotechnology, Santa Cruz, USA) were used. The resulting immunoblotting image was analyzed using the ChemiDoc™ touch imaging system and Image Lab 5.2 software (Bio-Rad, PA, USA).

muscle tissue of mice = assay: Intraperitoneal injection to normal and Olfr544 knockout mice, muscle tissue protein expression; format: in vivo, mouse; details: intraperitoneal 100 mg/kg; for pERK/ERK protein expression increase in muscle: compared with control
Excerpt: FIG. 7A to FIG. 7E are diagrams showing mechanisms of promoting mitochondrial biogenesis according to Olfr544 activity of an azelaic acid in mice (FIG. 7A: the images showing pCREB, CREB, PGC-1α, ERK1/2, pERK1/2 and LC3 proteins expression, FIG. 7B: analysis for pCREB and CREB protein expression levels, FIG. 7C: analysis for PGC-1α protein expression per an azelaic acid treatment time, FIG. 7D: analysis for pERK and ERK protein expression levels, and FIG. 7E: analysis for LC3 protein expression per an azelaic acid treatment time in muscle tissue extracted 30 and 120 minutes after an azelaic acid is intraperitoneally injected into normal mice and Olfr544 KO mice).
as §3

Olfr544 [4] = assay: Immunoblotting of pCREB, pERK1/2 and LC3II/LC3I in normal and Olfr544 knockdown C2C12 cells; format: cell-based, murine
Experimental: The differentiated skeletal muscle cells, C2C12 cells, were transfected with 200 pmol of scramble (control) or Olfr544 siRNA (Santa Cruz, USA) using the Lipofectamine 2000 reagent (Invitrogen, USA) for 6 hours. Subsequently, one more transfection was performed for 10 to 12 hours. After 24 hours, the transfected cells were treated with an azelaic acid and used for protein extraction.
as §6, with “antibodies, anti-CREB (1:250), anti-p-CREB (Ser133; 1:500), anti-β-actin (1:1000),” for “antibodies,”, “(1:1000), anti-ERK1/2 (1:500), anti-p-ERK1/2 (Thr53,54, 1:500),” for “(1:1000)”, “used. In addition, anti-LC3B (1:500) was purchased from Novus Biologicals (Novus Biologicals, USA).” for “used.”

C2C12 cells = assay: mtDNA level and mitochondrial density (MitoTracker) in differentiated C2C12 cells; format: cell-based, murine
Experimental: as §4, §5
C2C12 cells differentiated for 7 days as described in Example 2-1 were treated with 12.5, 25 or 50 μM of an azelaic acid. After 24 hours, RNA and proteins were extracted according to the following method, and used in the experiment. For a control, instead of an azelaic acid, the same amount of DMSO was treated.
After treatment with azelaic acid, the change in mitochondrial density was detected using MitoTracker. C2C12 cells were treated with an azelaic acid for 24 hours, and then washed with PBS. Subsequently, a medium containing […] of MitoTracker, i.e., a green probe, was added thereto, and the cells were cultured for 30 minutes. The mitochondrial density was measured by quantifying wavelengths of a part binding to the tracker, which absorbs a wavelength at 490 nm and emits a wavelength at 516 nm, using SpectraMax. Image analysis was performed using a confocal microscope and Zeiss LSM700 version 3.2 software (Carl Zeiss, Germany).
as §2, with “Afterward, 2 μl of DNA, 10 μl of the SYBR green PCR master mix, 0.5 μL of each of a forward primer and a reverse primer having a concentration of 10 pmol, and 6.6 μL of sterile distilled water were mixed, and qPCR was performed using the Thunderbird TMSYBR® qPCR Mix reagent (Takara Bio Inc., Japan).” left out

[5] = Olfr544 knockdown C2C12 cells, 50 μM, 24 hours
[6] = Scr siRNA-transfected normal C2C12 cells
[7] = normal mice, 30 minutes after injection
[8] = normal mice, 120 minutes after injection

With O=C(O)CCCCCCCC(=O)O [azelaic acid, nonanedioic acid] the “mitochondrial density (quantification)” value (Olfr544 [1]; C2C12 normal cells, azelaic acid (50 µM)) was “enrichment of mitochondria”, the mitochondrial density change (Olfr544 [1]; [5]) was “no changes” and the mtDNA change (Olfr544 [1]; [5]) was “no changes”. For the same compound, the mtDNA increase (Olfr544 [1]; azelaic acid-treated normal C2C12 cells, 50 μM, 24 hours) was “about 1.6 fold”, the “PGC-1α mRNA expression in muscle” value ([2]; Olfr544 knockout HFD mice) was “no changes” and the “Tfa gene expression in muscle” value ([2]; Olfr544 knockout HFD mice) was “no change”. For the same compound, the “mt DNAs in muscle” value ([2]; Olfr544 knockout HFD mice) was “no change”, the “Tfa gene expression increase in muscle” value ([2]; normal HFD mice) was “about 3.3 fold” and the “PGC-1α mRNA expression increase in muscle” value ([2]; normal HFD mice, compared to control group) was “about 1.9 fold”. For the same compound, the “mt DNAs in muscle” value ([2]; normal HFD mice, compared to non-administered mice) was “increased”, the “toxicity (cell viability, MTT assay)” value (Hepa1c1c-7 cells) was “toxicity was not observed at any concentration” and the PGC-1α gene expression (PGC-1α) was “increased”. The PGC-1α protein expression (PGC-1α) was “increased”, the “PGC-1α mRNA level” value (Olfr544 [3]; Olfr544 knockdown C2C12 cells) was “this effect is not shown” and the PGC-1α protein level (Olfr544 [3]; Olfr544 knockdown C2C12 cells) was “this effect is not shown”. The “PGC-1α mRNA level” value (Olfr544 [3]; [6]) was “significantly increases”, the PGC-1α protein level (Olfr544 [3]; [6]) was “significantly increases” and the “LC3II/LC3I protein expression in muscle” value (muscle tissue of mice; Olfr544 knockout mice) was “no change”. For the same compound, the “pERK/ERK protein expression in muscle” value (muscle tissue of mice; Olfr544 knockout mice) was “no change”, the “LC3II/LC3I protein expression increase in muscle” value (muscle tissue of mice; [7]) was 1.5 fold and the “pERK/ERK protein expression increase in muscle” value (muscle tissue of mice; [7]) was 2.5 fold. The “LC3II/LC3I protein expression in muscle” value (muscle tissue of mice; [8]) was “not changed”, the “pERK/ERK protein expression increase in muscle” value (muscle tissue of mice; [8]) was 2.8 fold and the LC3II/LC3I protein expression (Olfr544 [4]; Olfr544 knockdown C2C12 cells) was “this effect disappeared”. The pCREB expression change (Olfr544 [4]; Olfr544 knockdown C2C12 cells) was “no change”, the pCREB expression increase (Olfr544 [4]; normal (Scr siRNA) C2C12 cells) was “about 2 fold” and the “LC3II/LC3I protein expression increase” value (Olfr544 [4]; normal C2C12 cells, compared to the control group) was “about 3 fold”. The “phosphorylated ERK1/2 protein expression increase” value (Olfr544 [4]; skeletal muscle cells (C2C12)) was 1.5 fold, the “mitochondrial density (MitoTracker quantification)” value (C2C12 cells; 50 μM, 24 hours) was “significantly increased” and the “mtDNA level, increase over control” value (C2C12 cells; 50 μM, 24 hours) was “about 2.5 fold”. For the same compound, the “mitochondrial density, MitoTracker images under confocal fluorescence microscopy” value (C2C12 cells; treated group compared to control group) was “substantial increases”.
